Measured values published in ChEMBL document CHEMBL4033700, “From a novel HTS hit to potent, selective, and orally bioavailable KDM5 inhibitors” (Bioorg Med Chem Lett, 2017).

Key:
[1] = Clearance in CD-1 mouse plasma at 1 mg/kg, iv or 5 mg/kg, po; type: ADME, organism-based
[2] = molecular target: T1, Lysine-specific demethylase 5A (Homo sapiens, UniProt P29375); assay: Inhibition of recombinant human N-terminal FLAG-tagged KDM5A expressed in baculovirus infected Sf9 insect cells using H3K4me3 peptide as substrate after 30 to 45 mins by TR-FRET assay
T1 sequence (P29375 whole entry): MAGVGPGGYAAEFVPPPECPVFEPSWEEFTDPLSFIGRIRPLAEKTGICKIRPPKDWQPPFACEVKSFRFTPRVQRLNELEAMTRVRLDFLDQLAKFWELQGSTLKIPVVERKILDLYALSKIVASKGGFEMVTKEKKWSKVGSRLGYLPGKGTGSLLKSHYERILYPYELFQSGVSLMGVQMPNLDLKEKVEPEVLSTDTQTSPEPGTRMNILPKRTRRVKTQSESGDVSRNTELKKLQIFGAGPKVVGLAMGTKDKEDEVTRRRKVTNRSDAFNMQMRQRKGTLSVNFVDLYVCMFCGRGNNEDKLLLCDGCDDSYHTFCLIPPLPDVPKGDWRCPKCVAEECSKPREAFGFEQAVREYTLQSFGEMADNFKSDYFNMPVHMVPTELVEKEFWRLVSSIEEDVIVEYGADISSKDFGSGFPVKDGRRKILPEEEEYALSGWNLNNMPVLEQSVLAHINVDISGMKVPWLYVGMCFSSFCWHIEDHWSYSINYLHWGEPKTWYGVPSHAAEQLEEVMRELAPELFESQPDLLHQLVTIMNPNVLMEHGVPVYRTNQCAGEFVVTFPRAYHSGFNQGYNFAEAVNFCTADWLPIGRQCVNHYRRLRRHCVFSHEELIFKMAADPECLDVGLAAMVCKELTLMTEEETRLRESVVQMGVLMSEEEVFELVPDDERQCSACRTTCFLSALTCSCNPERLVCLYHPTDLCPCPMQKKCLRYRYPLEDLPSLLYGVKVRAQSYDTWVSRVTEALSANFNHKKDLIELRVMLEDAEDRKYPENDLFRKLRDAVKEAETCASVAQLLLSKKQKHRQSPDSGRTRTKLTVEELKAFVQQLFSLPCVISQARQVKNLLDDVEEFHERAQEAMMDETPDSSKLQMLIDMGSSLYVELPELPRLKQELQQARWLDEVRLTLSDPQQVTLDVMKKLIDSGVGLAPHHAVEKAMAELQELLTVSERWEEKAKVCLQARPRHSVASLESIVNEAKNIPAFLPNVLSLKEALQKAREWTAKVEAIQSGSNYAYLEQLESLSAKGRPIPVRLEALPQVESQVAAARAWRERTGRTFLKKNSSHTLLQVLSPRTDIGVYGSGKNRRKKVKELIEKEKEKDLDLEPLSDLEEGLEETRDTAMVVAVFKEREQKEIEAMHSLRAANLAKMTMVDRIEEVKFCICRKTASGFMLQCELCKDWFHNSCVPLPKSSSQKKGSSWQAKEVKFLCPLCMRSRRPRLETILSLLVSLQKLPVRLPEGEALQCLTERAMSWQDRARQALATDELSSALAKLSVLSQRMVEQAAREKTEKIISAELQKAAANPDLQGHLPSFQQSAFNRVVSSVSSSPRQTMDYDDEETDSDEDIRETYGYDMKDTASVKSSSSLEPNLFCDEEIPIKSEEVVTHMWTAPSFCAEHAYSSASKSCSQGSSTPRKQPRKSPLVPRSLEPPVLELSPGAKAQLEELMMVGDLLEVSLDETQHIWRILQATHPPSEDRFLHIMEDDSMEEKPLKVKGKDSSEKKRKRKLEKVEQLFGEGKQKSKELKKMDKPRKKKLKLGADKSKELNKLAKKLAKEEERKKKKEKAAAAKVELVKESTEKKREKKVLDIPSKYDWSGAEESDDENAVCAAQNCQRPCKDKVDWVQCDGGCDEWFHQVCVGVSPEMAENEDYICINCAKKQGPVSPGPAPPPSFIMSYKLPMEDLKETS

[3] = molecular target: T2, Lysine-specific demethylase 4C (Homo sapiens, UniProt Q9H3R0); assay: Inhibition of recombinant human N-terminal FLAG-tagged KDM4C expressed in baculovirus infected Sf9 insect cells using H3K9me3 peptide as substrate after 30 to 45 mins by TR-FRET assay
T2 sequence (Q9H3R0 whole entry): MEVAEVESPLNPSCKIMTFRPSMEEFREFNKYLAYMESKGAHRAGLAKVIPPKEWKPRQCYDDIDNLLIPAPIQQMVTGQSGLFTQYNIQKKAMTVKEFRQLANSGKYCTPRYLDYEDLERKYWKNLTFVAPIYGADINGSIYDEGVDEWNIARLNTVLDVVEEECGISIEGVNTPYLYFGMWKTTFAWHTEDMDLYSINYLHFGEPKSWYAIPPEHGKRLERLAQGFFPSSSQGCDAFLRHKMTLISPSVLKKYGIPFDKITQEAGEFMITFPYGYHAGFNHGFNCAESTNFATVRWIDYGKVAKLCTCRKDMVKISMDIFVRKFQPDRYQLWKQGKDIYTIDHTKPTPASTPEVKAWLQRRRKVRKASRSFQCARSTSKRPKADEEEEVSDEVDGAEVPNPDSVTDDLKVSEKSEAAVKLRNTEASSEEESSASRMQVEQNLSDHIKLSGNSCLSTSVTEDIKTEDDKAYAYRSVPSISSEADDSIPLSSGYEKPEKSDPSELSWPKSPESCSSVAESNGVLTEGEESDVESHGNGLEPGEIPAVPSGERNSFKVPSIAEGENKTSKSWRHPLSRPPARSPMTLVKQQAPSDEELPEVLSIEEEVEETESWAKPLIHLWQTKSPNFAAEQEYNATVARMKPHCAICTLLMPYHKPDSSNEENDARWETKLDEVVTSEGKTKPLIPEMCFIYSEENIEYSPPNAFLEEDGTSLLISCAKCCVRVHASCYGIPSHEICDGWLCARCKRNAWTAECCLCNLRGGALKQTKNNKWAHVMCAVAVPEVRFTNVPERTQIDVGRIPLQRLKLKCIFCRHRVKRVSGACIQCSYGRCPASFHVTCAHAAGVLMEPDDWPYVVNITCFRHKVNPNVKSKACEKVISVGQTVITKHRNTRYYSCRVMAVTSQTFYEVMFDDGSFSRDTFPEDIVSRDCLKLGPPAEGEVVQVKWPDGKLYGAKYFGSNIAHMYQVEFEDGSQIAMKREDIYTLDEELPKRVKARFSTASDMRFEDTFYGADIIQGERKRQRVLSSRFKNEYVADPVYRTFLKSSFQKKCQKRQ

[4] = molecular target: T1, Lysine-specific demethylase 5A; assay: Inhibition of KDM5A in human PC9 cells assessed as increase in H3K4me3 level after 5 days by mass-spectrometric method; type: cell-based
[5] = Protein binding in human plasma; type: ADME, cell-free; details: read-out: PPB (converted)
[6] = Protein binding in rat plasma; type: ADME, cell-free; details: read-out: PPB (converted)
[7] = Protein binding in mouse plasma; type: ADME, cell-free; details: read-out: PPB (converted)
[8] = Half-life in CD-1 mouse plasma at 1 mg/kg, iv or 5 mg/kg, po; type: ADME, organism-based
[9] = Volume of distribution in CD-1 mouse plasma at 1 mg/kg, iv or 5 mg/kg, po; type: ADME, organism-based
[10] = Oral bioavailability in CD-1 mouse at 5 mg/kg; type: ADME, organism-based; details: in vivo
[11] = Hepatic clearance in human liver microsomes; type: ADME, microsome
[12] = Hepatic clearance in rat liver microsomes; type: ADME, microsome
[13] = Hepatic clearance in mouse liver microsomes; type: ADME, microsome
[14] = Hepatic clearance in human hepatocytes; type: ADME, cell-based, Hepatocyte
[15] = Hepatic clearance in rat hepatocytes; type: ADME, cell-based, Hepatocyte
[16] = Hepatic clearance in mouse hepatocytes; type: ADME, cell-based, Hepatocyte

## Cc1cc(-c2cnn(C)c2)cc(C2CCN(C(=O)c3cc(C(C)C)n[nH]3)C2)n1 (stereo in doubt; 9)
[1]
  clearance: 99.9 mL/min/kg
[2]
  IC50: 0.16 µM
[3]
  IC50: 13.3 µM
[4]
  EC50: > 30 µM
[5]
  fraction unbound: 0.045
[6]
  fraction unbound: 0.027
[7]
  fraction unbound: 0.043
[8]
  half-life: 18 min
[9]
  Vd: 2.1 L/kg
[10]
  bioavailability: 94%
[11]
  CLhep predicted: 7 mL/min/kg
[12]
  CLhep predicted: 37 mL/min/kg
[13]
  CLhep predicted: 69 mL/min/kg
[14]
  CLhep predicted: 12 mL/min/kg
[15]
  CLhep predicted: 39 mL/min/kg
[16]
  CLhep predicted: 66 mL/min/kg
